According to US20180230160A1, “2-AMINO-7A-PHENYL-3,4,4A,5,7,7A-HEXAHYDROFURO[3,4-B]PYRIDINES AS BACE1 INHIBITORS” (H. Lundbeck A/S, priority 2015, published 2018):
Read-outs that look alike come from different tables or passages of the source.

Tests used:
[1] = molecular target: human BACE1 (Homo sapiens, UniProt P56817); test: BACE1 binding assay (SPA-based radioligand binding); parameters: biotin (biotinylated form); made in house; host or cells: Freestyle HEK293 cells; details: pH 4.5, 10 nM radioligand, Ki=IC50/(1+L/Kd)
human BACE1, sequence (P56817 46-501): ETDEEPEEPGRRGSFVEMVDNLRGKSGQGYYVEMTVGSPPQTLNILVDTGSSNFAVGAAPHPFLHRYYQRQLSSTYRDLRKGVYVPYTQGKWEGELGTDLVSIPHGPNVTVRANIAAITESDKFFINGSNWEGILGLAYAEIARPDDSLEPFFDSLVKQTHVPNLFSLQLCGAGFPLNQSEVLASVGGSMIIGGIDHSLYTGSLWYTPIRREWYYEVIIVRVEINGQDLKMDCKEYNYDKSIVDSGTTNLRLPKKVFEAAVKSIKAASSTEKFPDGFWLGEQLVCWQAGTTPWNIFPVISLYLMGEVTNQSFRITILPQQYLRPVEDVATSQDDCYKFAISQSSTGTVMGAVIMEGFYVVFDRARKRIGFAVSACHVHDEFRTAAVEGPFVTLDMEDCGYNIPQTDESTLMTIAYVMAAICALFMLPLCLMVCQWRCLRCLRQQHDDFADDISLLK
In short: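 SPA radioligand displacement: biotinylated human BACE1 (HEK293-expressed, 6 nM final) with 10 nM [3H]-isophthalamide ligand and streptavidin beads in 50 mM sodium acetate pH 4.5, 50 mM NaCl, 0.03% Tween-20, 1 h at room temperature. Non-specific binding defined with 1 μM reference inhibitor. IC50 converted to Ki via Cheng-Prusoff using saturation-derived Kd.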

[2] = tested on: Aβ40 peptide; test: Assessment of Aβ peptide levels in rat brain and plasma following BACE1 inhibition (Aβ40 ELISA); format: in vivo; details: 3 hours post dose, vs vehicle
Procedure: Assessment of Aβ Peptide Levels in Rat Brain and Plasma Following BACE1 Inhibition. Animals.
(§1) Young adult Male Sprague Dawley rats of approximately 250 g weight were purchased from Charles River and received 0-30 mg/kg of vehicle (10% HP betaCD+1M MeSO4, pH 2.5) or test compounds (dissolved in vehicle) only by oral gavage (p.o). The compounds are dosed at a volume of 5 ml/kg. Cohorts of 5-10 animals were established for each treatment condition.
(§2) At T=180 minutes after initial dosing the animals were stunned and decapitated with a guillotine. Trunk-blood was sampled in EDTA coated tubes after decapitation of the animal. The blood was centrifuged at 2200G at 4° C. for 15 minutes and the plasma was collected and frozen at −80° C. The blood was aliquoted for Aβ ELISA and DMPK analysis. Immediately following sacrifice, the brain was extracted and split into 2 halves. The right hemibrains were snap frozen on dry ice and stored at −80° C. The left half was dissected; with the front forebrain taken for Aβ ELISA and the remainder used for DMPK analysis. These samples were also snap frozen on dry ice and stored at −80° C. until use for analysis.
The cortex samples were thawed slightly on wet ice before they were homogenized with a small volume dispersing instrument (T10 basic ULTRA-TURRAX®) which was set at speed 5 for approximately 5-7 sec. The tissue was processed in a 10 times volume of the weight, for example 100 mg of tissue was homogenized in 1000 μL of Homogenization buffer. Homogenization buffer: 50 ml Milli Q water+50 nM NaCl+0.2% Diethylamin (DEA)+1 tablet of Complete Protease inhibitor cocktail+1 nM 4-(2-aminoethyl) benzenesulfonyl fluoride hydrochloride irreversible serine protease inhibitor (AEBSF).
After homogenization 450 μL aliquots of the samples are collected into a 1.5 ml Eppendorf tube and placed on wet ice, 0.5% NP-40 (50 ul) was added to all samples and then they were incubated on ice for 30 min. After which all samples were sonicated using an Ultrasonic homogenizer with 20 kHz homogeneous sound (SONOPLUS HD2070, Bandelin Electronic) 10 pulse set at 12-13% power to extract all the Aβ species. The samples were then centrifuged (Ole Dich 157 MPRF Micro centrifuge) at 20000G for 20 minutes at 4° C. After centrifugation 285 μL of the supernatant was pipetted into 600 μL microtubes tubes and neutralized with 15 μL of 1M Tris-HCL buffer.
WAKO 294-62501 Human/Rat Abeta amyloid (40) kit was used for all ELISA analyses. 30 μL plasma samples or 30 μL of the cortex supernatants generated as described above were placed in 600 μL microtubes tubes on wet ice. To this 30 μL of 8M urea (AppliChem A1049, 9025) was added to generate a 2-fold dilution. Both plasma and cortex supernatants were incubated on ice for 30 min. Standard rows were prepared from the standard peptide stock provided in the kit and standard diluent containing 1.6M urea (200 μL 8M urea+800 μL of standard diluent) and 0.8M urea (400 μL 8M Urea+3600 μL Standard diluent). A serial 2-fold dilution of Aβ40 from 100 pmol/ml to 0 pmol/L was prepared for the assay.
After incubation with urea, all samples were further diluted by addition of 5 times standard diluent from the Kit. This was done by adding 240 μL Standard Diluent to 60 μL sample/urea mixture, which was then mixed well. 100 μL of each diluted sample was pipetted into designated wells of the ELISA plate in duplicates. The plate was then covered and incubated overnight at 4° C. The following day, the ELISA kit was brought to room temperature before use. The incubated plate was washed 5 times with the 20× washing solution diluted in Milli Q water. 100 μL HRP-conjugate was applied to each well, and the plate was covered and incubates at 4° C. for 1 hr. The wash was repeated again for 5 times. 100 μL 3,3′,5,5′-Tetramethylbenzidine (TMB) solution was applied to each well and the plate was covered and incubated in the dark at room temperature for 30 minutes. […]

[3] = Compound exposure in rat brain and plasma after oral dosing (DMPK analysis); format: in vivo; details: male, Sprague Dawley, 3 hours post dose; for concentration at 3 h: read-out: Exp (exposure); for Kp at 3 h: brain/plasma, read-out: Brain/Plasma ratio
Procedure: as §1, §2
The results of the administration of representative Compounds of Examples 1, 2, 5, […], of brain and plasma samples collected at 3 hours post dose and then following exposures, as described above, are tabulated below.

SMILES	Ki [1]	Aβ40 reduction ([2]; Brain, 10 mg/kg p.o.)	Aβ40 reduction ([2]; Brain, 30 mg/kg p.o.)	Aβ40 reduction ([2]; Plasma, 10 mg/kg p.o.)	Aβ40 reduction ([2]; Plasma, 30 mg/kg p.o.)	concentration at 3 h ([3]; Brain, 10 mg/kg p.o.)	concentration at 3 h ([3]; Brain, 30 mg/kg p.o.)	concentration at 3 h ([3]; Plasma, 10 mg/kg p.o.)	concentration at 3 h ([3]; Plasma, 30 mg/kg p.o.)	Kp at 3 h ([3]; 10 mg/kg p.o.)	Kp at 3 h ([3]; 30 mg/kg p.o.)
[2H]C([2H])([2H])Oc1ccc(C(=O)Nc2ccc(F)c([C@]34COC[C@H]3C[C@@](F)(CF)C(N)=N4)c2)nc1 [Example 22, N-(3-((3S,4aS,7aS)-2-amino-3-fluoro-3-(fluoromethyl)-3,4,4a,5-tetrahydrofuro[3,4-b]pyridin-7a-yl)-4-fluorophenyl)-5-(methoxy-d3)picolinamide]	51 nM	23%	48%	33%	43%	153 ng/g	776 ng/g	399 ng/g	1830 ng/g	0.38	0.42
COc1cnc(C(=O)Nc2ccc(F)c([C@]34COC[C@@]3(F)C[C@@](C)(F)C(N)=N4)c2)cn1 [Example 7, N-(3-((3R,4aR,7aS)-2-amino-3,4a-difluoro-3-methyl-3,4,4a,5,7,7a-hexahydrofuro[3,4-b]pyridin-7a-yl)-4-fluorophenyl)-5-methoxypyrazine-2-carboxamide]	11 nM	48%	64%	42%	50%	93 ng/g	479 ng/g	88 ng/g	239 ng/g	1.05	2.01
